Test results from patent US6921749B1, “Polypeptides derived from endostatin exhibiting antiangiogenic activity” (Universita' Degli Studi di Milano, priority 1999, dated 2005).
Where no end group is shown, it is not given here. The star is where a group is joined. tBu = CC(C)(C)*

What was measured:
[1] = system: microvascular endothelial cells; settings: E. coli expressed protein; cited from earlier work
endothelial cells = experiment: In vitro inhibition test on endothelial cells proliferation and migration; format: cell-based
From the text: These polypeptides have remarkable antiangiogenic activity in the in vitro inhibition test on endothelial cells proliferation and migration (16).

mouse aorta rings = experiment: Vascular sprouting in vitro in three-dimensional fibrin gels; format: cell-based; settings: vascular rings in 3D fibrin gels, day 3
Method: Vascular sprouting from mouse aorta rings was assessed in three-dimensional fibrin gels preparations according to the method described by Brown et al (15), with minor modifications. Quantitative evaluation of newly formed structures was carried out at day 3. The area covered by vascular sprouts was quantified in microscopic units (0.21 mm^2).
The formation of capillary-like structures in vascular rings cultured in 3D fibrin gels was used to test angiogenesis in vitro. Fragment I and IV inhibited the spontaneous growth of capillaries and the one induced by FGF-2 and VEGF. As an example the effect of 100 ng/ml concentration of either fragment is shown (FIG. 3A).
FIG. 3: Effect of endostatin fragments on angiogenesis in vitro (A) and in vivo (B). A. In vitro vessel sprouting from rings of mouse aortas was induced by FGF-2 (10 ng/ml). Fragments I and IV were used at […]. Data are reported as mean area occupied by tubules-like structures after 3 days from stimulation. Numbers are means of one representative experiment out of two run in triplicate.

[2] = system: coronary venular endothelial cells (CVEC); experiment: Proliferation studies (total cell number), postcapillary venule endothelial cells; format: cell-based, bovine; settings: 10 to 1000 ng/ml, 48 hr, FGF-2 and VEGF 20 ng/ml each
From the text: The coronary venular endothelial cells (CVEC) were isolated and cultured as previously described (8).
Cell proliferation was quantified by total cell number as reported (12,13).
Cell proliferation was quantified by counting the total number of cells after 48 hr treatment. Endothelial cells isolated from postcapillary venules were used to test the effect on angiogenesis. […] The effect was more pronounced on FGF-2-induced growth. […] Similar effects were obtained on all the endothelial cell lines tested (FIG. 1E).
C-E: Effect of endostatin fragments on endothelial cell proliferation. Endothelial cell (C,D: CVEC; E, MAE) proliferation was stimulated with FGF-2 and VEGF (20 ng/ml each). Data are expressed as number of cells counted/well after 48 hr incubation with test substances. Numbers are means±SEM of 6 and 2 experiments run in triplicate for CVEC and ME, respectively.

Substance | FGF-2 and VEGF induced proliferation and migration [1] | potency compared with endostatin (endothelial cells) | growth of capillaries induced by FGF-2 and VEGF (mouse aorta rings) | spontaneous growth of capillaries (mouse aorta rings) | cell growth induced by FGF-2 and VEGF [2]
endostatin | able to block |  |  |  | 
His-Thr-His-Gln-Asp-Phe-Gln-Pro-Val-Leu-His-Leu-Val-Ala-Leu-Asn-Thr-Pro-Leu-Ser-Gly-Gly-Met-Arg-Gly-Ile-Arg-Gly-Ala-Asp-Phe-Gln-Cys(tBu)-Phe-Gln-Gln-Ala-Arg-Ala (HTHQDFQPVLHLVALNTPLSGGMRGIRGADFQC(tBu)FQQARA) [Fragment I] |  | equipotential to endostatin | inhibited | inhibited | 
Cys-Glu-Thr-Trp-Arg-Thr-Glu-Thr-Thr-Gly-Ala-Thr-Gly-Gln-Ala-Ser-Ser-Leu-Leu-Ser-Gly-Arg-Leu-Leu-Glu-Gln-Lys-Ala-Ala-Ser-Cys-His-Asn-Ser-Tyr-Ile-Val-Leu-Cys(tBu)-Ile-Glu-Asn-Ser-Phe-Met-Thr-Ser-Phe-Ser-Lys (CETWRTETTGATGQASSLLSGRLLEQKAASCHNSYIVLC(tBu)IENSFMTSFSK; cysteine pairing not given here) [Fragment IV] |  |  | inhibited | inhibited | most potent
